Bounds are passed on as bounds.

This data set in a line: passive permeability, PAMPA, ADME assay (AID 1508612). The note with it: pH 7.4, 30.0 min, 50.0 µM.
As for `Cc1cnc(-c2ccccc2C2COC2)nc1NCc1ccc(-n2ccnn2)cc1`, the Papp is less than 1 ×10⁻⁶ cm/s.

`Cc1ccc(C(=O)Nc2cccc(C(F)(F)F)c2)cc1Nc1nc(-c2cccnc2)nc2c1cnn2C` yielded a Papp of 283 ×10⁻⁶ cm/s.

`COc1ccc(-c2ccc(C(=O)NC3CC(c4cc(=O)[nH]c(N)n4)C3)o2)cc1` (stereo unspecified) came in with an apparent permeability coefficient (Papp) of 20.9 ×10⁻⁶ cm/s.

Consider `COc1ccccc1N1CCN(C2CCCCC2NS(=O)(=O)c2ccccc2)CC1` (stereo unspecified), for which the Papp was greater than 1000 ×10⁻⁶ cm/s.

For `CC1Cc2cc(S(=O)(=O)NCc3ccc(N(C)C)cc3)ccc2N1C(=O)C1CCC1` (stereo unspecified), the Papp was greater than 1000 ×10⁻⁶ cm/s.

Turning to `CC1CCc2cc(F)ccc2N1C(=O)CSc1nnc2c(n1)[nH]c1ccccc12` (stereo unspecified), the Papp is greater than 1000 ×10⁻⁶ cm/s.

In turn, `COc1cccc(OC)c1C(=O)Nc1ccccc1C(=O)Nc1cccc(C(F)(F)F)c1` registered a Papp of 899 ×10⁻⁶ cm/s.

For `CCN1C(=O)c2ccccc2S(=O)c2ccc(NC(=O)Cc3ccc(OC)cc3)cc21` (stereo unspecified), the apparent permeability (Papp) is greater than 1000 ×10⁻⁶ cm/s.

For `COc1ccc(-c2c(-c3cc(C(=O)O)ccn3)ncn2C)cc1`, the Papp is 3.06 ×10⁻⁶ cm/s.

Molecule `COCCNC(=O)c1ccc(-c2ccc(N3CCCCC3)nc2)cc1` gave a Papp greater than 1000 ×10⁻⁶ cm/s.

Take `COc1cc2c(c(OC)c1OC)-c1ccc(OC)c(=O)cc1[C@@H](NC(C)=O)CC2`: the apparent permeability (Papp) stood at 1.93 ×10⁻⁶ cm/s.

In turn, `CCOc1ccc(CCNC(=O)c2cc3ccncc3n2Cc2cccc(C)n2)cc1OCC` came in with a Papp of 3.77 ×10⁻⁶ cm/s.

In turn, `O=c1cc(-c2ccccc2)oc2cc(O)cc(O)c12` had a Papp of 452 ×10⁻⁶ cm/s.

The molecule `COc1ccc(O)c(CNc2ccc(S(=O)(=O)Nc3nccs3)cc2)c1` came in with a Papp of 3.74 ×10⁻⁶ cm/s.

Take `Fc1cc(Nc2nc(-c3ccncc3)nc3ccccc23)ccc1-c1ccnc(C(F)(F)F)c1`: the Papp worked out at 11.6 ×10⁻⁶ cm/s.

Consider `COc1ccc(-n2nc(C3CCN([S+](=O)([O-])c4c(C)noc4C)CC3)[nH]c2=O)cc1`, for which the Papp was 403 ×10⁻⁶ cm/s.

For the molecule `CSc1cc2c(s1)c1cnn(Cc3cccc(N)c3)c(=O)c1n2C`, the Papp was greater than 1000 ×10⁻⁶ cm/s.

The molecule `O=C(Nc1ccc2oc(-c3ccccc3F)nc2c1)c1ccc([N+](=O)[O-])o1` had an apparent permeability (Papp) of 38.4 ×10⁻⁶ cm/s.

`CC1CCc2ccc(F)cc2N1S(=O)(=O)c1cccs1` (stereo unspecified) showed a Papp of 795 ×10⁻⁶ cm/s.

In turn, `COc1ccc(S(=O)(=O)N2CCOCC2)cc1NC(=O)c1cccc(-n2cccc2)c1` came in with a Papp of less than 1 ×10⁻⁶ cm/s.

Molecule `Fc1ccc(Nc2nc(-c3ccncc3)nc3ccccc23)cc1F` came in with a Papp of 376 ×10⁻⁶ cm/s.

In turn, `CC1CCN(S(=O)(=O)c2ccc3c(c2)C(C)(C)C(=O)N3CC(=O)NCc2ccco2)CC1` gave an apparent permeability (Papp) of 584 ×10⁻⁶ cm/s.

The molecule `CCOc1ccc(CN2C(=O)c3ccccc3Sc3ccc(C(=O)NC4CCC(C)CC4)cc32)cc1` (stereo unspecified) had an apparent permeability (Papp) of less than 1 ×10⁻⁶ cm/s.

Consider `Cc1noc(C)c1-c1ccc2ncnc(N3CCC(C(=O)O)CC3)c2c1`, for which the apparent permeability (Papp) came out at 1.5 ×10⁻⁶ cm/s.

`Cc1cc(Nc2nc(-c3ccncc3)nc3ccccc23)n[nH]1` returned a Papp of 721 ×10⁻⁶ cm/s.

In turn, `Cc1ccc(S(=O)(=O)Nc2ncccc2C(=O)Nc2nc(-c3ccccc3)cs2)cc1` registered an apparent permeability coefficient (Papp) of 814 ×10⁻⁶ cm/s.

The molecule `Cc1cc(NS(=O)(=O)c2ccc(NC(=O)Cc3ccc(Cl)c(Cl)c3)cc2)no1` yielded a Papp of 30.2 ×10⁻⁶ cm/s.

For the molecule `C=C1c2cccc(O)c2C(O)=C2C(=O)[C@]3(O)C(O)=C(C(N)=O)C(=O)[C@@H](N(C)C)[C@@H]3[C@@H](O)[C@H]12`, the apparent permeability coefficient (Papp) is less than 1 ×10⁻⁶ cm/s.

The molecule `COc1ncc(-c2ccc3c(Nc4cc(Oc5cc(F)cc(F)c5)cc(C(=O)O)c4)c(S(=O)(=O)NC4CC4)cnc3c2)c(OC)n1` displayed an apparent permeability coefficient (Papp) of less than 1 ×10⁻⁶ cm/s.

In turn, `NC(=O)C1CCN(c2nc(-c3ccccc3-c3ccccc3)cs2)CC1` showed an apparent permeability coefficient (Papp) of 606 ×10⁻⁶ cm/s.

Regarding `O=S(=O)(Nc1nccs1)c1ccc(NCc2cc(Cl)ccc2O)cc1`, the apparent permeability (Papp) was 10.8 ×10⁻⁶ cm/s.

Take `Cc1nc2ccc(NC(=O)c3cc(S(=O)(=O)N(C)c4ccccc4)ccc3Cl)cc2s1`: the Papp was determined as 70 ×10⁻⁶ cm/s.

`CC(C)NC(=O)c1nc(-c2ccc(Cl)nc2)c2cnccn12` registered a Papp of 723 ×10⁻⁶ cm/s.

Take `Cc1cccc(CNc2ccc(S(=O)(=O)Nc3nccs3)cc2)c1O`: the Papp was 7.9 ×10⁻⁶ cm/s.

For `COc1ccc(-n2nc(C3CCCN(C(=O)c4ccccc4)C3)[nH]c2=O)cc1` (stereo unspecified), the Papp was less than 1 ×10⁻⁶ cm/s.

For the molecule `COc1cccc(CNCCSc2nnnn2C)c1OCc1ccc(Cl)cc1Cl`, the apparent permeability (Papp) was greater than 1000 ×10⁻⁶ cm/s.

For the molecule `COc1cc2c(cc1Oc1cccc(N(C)C)c1)NC(=O)C21CCN(c2cnccn2)CC1`, the Papp is greater than 1000 ×10⁻⁶ cm/s.

Take `O=C(NCCc1cnc[nH]1)c1ccc(-c2ncc3cnc(-c4cccc(F)c4)cn23)cc1`: the Papp is less than 1 ×10⁻⁶ cm/s.

Molecule `COc1ccc(-n2nc(C3CCCN(C(=O)Nc4ccccc4)C3)[nH]c2=O)cc1` (stereo unspecified) showed an apparent permeability (Papp) of 360 ×10⁻⁶ cm/s.

The molecule `C[C@@H]1Cc2c([nH]c3cc(Cl)c(F)cc23)[C@]2(N1)C(=O)Nc1ccc(Cl)cc12` returned a Papp of 763 ×10⁻⁶ cm/s.

As to `O=C(Nc1nc(-c2ccc(F)cc2)cs1)c1ccncc1NS(=O)(=O)c1ccc(F)cc1`, the Papp stood at 755 ×10⁻⁶ cm/s.

In turn, `Nc1nc(N)c2c(OCC3CCN(Cc4ccccc4F)CC3)cccc2n1` gave an apparent permeability (Papp) of 938 ×10⁻⁶ cm/s.

`COc1ccc(C(=O)CCN(C)C)cc1F` showed an apparent permeability (Papp) of 410 ×10⁻⁶ cm/s.

As to `COc1ccc(NC(=O)CCCc2nnc3n(CCC(C)C)c(=O)c4sccc4n23)cc1Cl`, the Papp is greater than 1000 ×10⁻⁶ cm/s.

`COc1cc2c(cc1-c1c(C)noc1C)ncc1[nH]c(=O)n([C@H](C)c3ccccn3)c12` registered a Papp of 858 ×10⁻⁶ cm/s.

Turning to `O=C(Cc1c[nH]c2ncc(-c3ccc(Cl)cc3)cc12)NCc1cccnc1`, the Papp is greater than 1000 ×10⁻⁶ cm/s.

What is called Papp is the rate of passage across a membrane or cell layer, normalised by area and donor concentration. Higher therefore signals fast passage.

Values taken from PubChem BioAssay AID1508612.
